≈ marks a conversion by molar mass, not a printed value. One block for each compound: values may come before it.
How the values were obtained:
Test in all cases: ≥ marks a high value that may be exact or a test limit, other limits are often not marked, values filed in µg/mL are converted to µM
[1] = tested on: Staphylococcus aureus ATCC BAA-1556
[2] = tested on: Cronobacter sakazakii DPC 6440
[3] = tested on: Listeria monocytogenes LO28
[4] = tested on: Erwinia amylovora PMV 6076
[5] = tested on: Pseudomonas syringae pv. syringae EPS 94
Pasteurella multocida = tested on: Pasteurella multocida
Bacillus cereus = tested on: Bacillus cereus
Streptococcus uberis = tested on: Streptococcus uberis
Escherichia coli = tested on: Escherichia coli
Leuconostoc lactis = tested on: Leuconostoc lactis
Listeria innocua = tested on: Listeria innocua
Micrococcus luteus = tested on: Micrococcus luteus
Staphylococcus aureus = tested on: Staphylococcus aureus
[6] = tested on: Staphylococcus epidermidis
Escherichia coli O111 = tested on: Escherichia coli O111
[7] = tested on: Escherichia coli ATCC 25922
[8] = tested on: Salmonella enterica subsp. enterica serovar Typhimurium C77-31
[9] = tested on: Salmonella enterica subsp. enterica serovar Pullorum C79-13
[10] = tested on: Staphylococcus aureus ATCC 29213
[11] = tested on: Staphylococcus epidermidis ATCC 12228
[12] = tested on: Pseudomonas aeruginosa ATCC 27853
[13] = tested on: Enterococcus faecalis ATCC 29212
[14] = tested on: Bacillus subtilis CMCC 63501

MIC [2]: ≥ 625 µM | MIC [3]: ≥ 156 µM
SMILES: CC[C@H](C)[C@H](NC(=O)[C@@H](N)Cc1c[nH]c2ccccc12)C(=O)N[C@@H](CCC(N)=O)C(=O)N1CCC[C@H]1C(=O)N[C@@H](C)C(=O)N[C@H](C(=O)N[C@@H](C)C(=O)N[C@H](C(=O)N[C@H](C(=O)N1CCC[C@H]1C(=O)N[C@@H](Cc1ccc(O)cc1)C(=O)N[C@H](C(=O)N[C@@H](CCCN=C(N)N)C(=O)N[C@@H](Cc1ccc(O)cc1)C(=O)N[C@@H](CC(C)C)C(=O)O)C(C)C)[C@@H](C)CC)C(C)C)[C@@H](C)O [WIQPATAVIPYVRYL]

MIC [2]: ≥ 312 µM | MIC [3]: ≥ 39.1 µM
SMILES: CC[C@H](C)[C@H](NC(=O)[C@@H](N)Cc1c[nH]c2ccccc12)C(=O)N[C@@H](CCC(N)=O)C(=O)N1CCC[C@H]1C(=O)N[C@@H](CCCCN)C(=O)N[C@H](C(=O)N[C@@H](C)C(=O)N[C@H](C(=O)N[C@H](C(=O)N1CCC[C@H]1C(=O)N[C@@H](Cc1ccc(O)cc1)C(=O)N[C@H](C(=O)N[C@@H](CCCN=C(N)N)C(=O)N[C@@H](Cc1ccc(O)cc1)C(=O)N[C@@H](CC(C)C)C(=O)O)C(C)C)[C@@H](C)CC)C(C)C)[C@@H](C)O [WIQPKTAVIPYVRYL]

MIC [1]: 25 µM (≈ 31.8 µg/mL)
SMILES: CC[C@H](C)[C@H](NC(=O)[C@H](Cc1c[nH]c2ccccc12)NC(=O)[C@H](CCCN=C(N)N)NC(=O)[C@H](CCCN=C(N)N)NC(=O)[C@@H](N)Cc1c[nH]c2ccccc12)C(=O)N[C@@H](CCCN=C(N)N)C(=O)N[C@@H](Cc1c[nH]c2ccccc12)C(=O)N[C@@H](CC(C)C)C(N)=O [WRRWIRWL]

MIC (Escherichia coli O111): ≥ 322 µM
SMILES: CC[C@H](C)[C@H](NC(=O)[C@H](CO)NC(=O)[C@@H]1CCCN1C(=O)[C@H](C)NC(=O)CNC(=O)[C@H](CC(C)C)NC(=O)[C@H](CCCN=C(N)N)NC(=O)[C@H](CCSC)NC(=O)[C@H](CCCN=C(N)N)NC(=O)[C@H](CCCN=C(N)N)NC(=O)[C@H](CCC(N)=O)NC(=O)[C@H](Cc1c[nH]c2ccccc12)NC(=O)[C@H](CCC(N)=O)NC(=O)[C@@H](N)Cc1ccc(O)cc1)C(=O)N[C@H](C(=O)O)[C@@H](C)O [YQWQRRMRLGAPSIT]

MIC [2]: ≥ 78.1 µM | MIC [3]: 19.5 µM (≈ 35.4 µg/mL)
SMILES: CC[C@H](C)[C@H](NC(=O)[C@@H](N)Cc1c[nH]c2ccccc12)C(=O)N[C@@H](CCC(N)=O)C(=O)N1CCC[C@H]1C(=O)N[C@@H](CCCCN)C(=O)N[C@H](C(=O)N[C@@H](CCCCN)C(=O)N[C@H](C(=O)N[C@H](C(=O)N1CCC[C@H]1C(=O)N[C@@H](Cc1ccc(O)cc1)C(=O)N[C@H](C(=O)N[C@@H](CCCN=C(N)N)C(=O)N[C@@H](C)C(=O)N[C@@H](CC(C)C)C(=O)O)C(C)C)[C@@H](C)CC)C(C)C)[C@@H](C)O [WIQPKTKVIPYVRAL]

MIC (Escherichia coli O111): ≥ 58.8 µM
SMILES: CC[C@H](C)[C@H](NC(=O)[C@H](CO)NC(=O)[C@@H]1CCCN1C(=O)[C@H](C)NC(=O)CNC(=O)[C@H](CC(C)C)NC(=O)[C@H](CCCCN)NC(=O)[C@H](CCCN=C(N)N)NC(=O)[C@H](CCSC)NC(=O)[C@H](CCCN=C(N)N)NC(=O)[C@H](CCCN=C(N)N)NC(=O)[C@H](CCC(N)=O)NC(=O)[C@@H](N)Cc1c[nH]c2ccccc12)C(=O)N[C@H](C(=O)O)[C@@H](C)O [WQRRMRKLGAPSIT]

Second part, the compound before the results:

SMILES: CC(C)C[C@H](NC(=O)[C@H](Cc1c[nH]c2ccccc12)NC(=O)[C@H](Cc1c[nH]c2ccccc12)NC(=O)[C@H](CC(C)C)NC(=O)[C@H](Cc1c[nH]c2ccccc12)NC(=O)[C@H](Cc1c[nH]c2ccccc12)NC(=O)[C@H](CC(C)C)NC(=O)[C@H](CCCN=C(N)N)NC(=O)[C@@H](N)Cc1c[nH]c2ccccc12)C(N)=O [WRLWWLWWL]
MIC [1]: 6.25 µM (≈ 9.02 µg/mL)

SMILES: CC[C@H](C)[C@H](NC(=O)[C@@H](NC(=O)[C@H](CCCCN)NC(=O)[C@@H](N)[C@@H](C)O)C(C)C)C(=O)N1CCC[C@H]1C(=O)N[C@@H](Cc1ccc(O)cc1)C(=O)N[C@H](C(=O)N[C@@H](CCCN=C(N)N)C(=O)N[C@@H](Cc1ccc(O)cc1)C(=O)N[C@@H](CC(C)C)C(=O)O)C(C)C [TKVIPYVRYL]
MIC [2]: ≥ 156 µM | MIC [3]: ≥ 78.1 µM

SMILES: CC[C@H](C)[C@H](NC(=O)[C@H](CCCCN)NC(=O)[C@H](CCCCN)NC(=O)[C@H](Cc1ccccc1)NC(=O)[C@H](CC(C)C)NC(=O)[C@H](CCCCN)NC(=O)[C@H](CCCCN)NC(=O)CN)C(=O)N[C@@H](CC(C)C)C(=O)N[C@@H](CCCCN)C(=O)N[C@@H](Cc1ccc(O)cc1)C(=O)N[C@@H](CC(C)C)C(=O)N[C@@H](C)C(=O)NCC(=O)N1CCC[C@H]1C(=O)N[C@@H](C)C(=O)N[C@@H](CCCCN)C(=O)N[C@@H](Cc1ccccc1)C(=O)N[C@@H](CC(C)C)C(=O)N[C@@H](Cc1cnc[nH]1)C(=O)N[C@@H](CO)C(=O)N[C@@H](C)C(=O)N[C@@H](CCCCN)C(=O)O [GKKLFKKILKYLAGPAKFLHSAK]
MIC [4]: 1.77 µM (≈ 4.57 µg/mL) | MIC [5]: 3.54 µM (≈ 9.15 µg/mL)

SMILES: CC(C)C[C@H](NC(=O)[C@H](CC(C)C)NC(=O)[C@H](Cc1c[nH]c2ccccc12)NC(=O)[C@H](CCCCN)NC(=O)[C@H](CC(C)C)NC(=O)[C@H](CC(C)C)NC(=O)[C@H](CCCCN)NC(=O)[C@@H](N)CCCCN)C(N)=O [KKLLKWLL]
MIC [1]: ≥ 100 µM

SMILES: CC[C@H](C)[C@H](NC(=O)[C@@H](NC(=O)CN)C(C)C)C(=O)N[C@@H](CC(=O)O)C(=O)N[C@@H](C)C(=O)N[C@@H](C)C(=O)N[C@@H](C)C(=O)N[C@@H](CCCCN)C(=O)N[C@H](C(=O)N[C@H](C(=O)N[C@@H](CC(N)=O)C(=O)N[C@H](C(=O)N[C@@H](CC(C)C)C(=O)N[C@@H](CCCCN)C(=O)N[C@@H](CC(N)=O)C(=O)N[C@@H](CC(C)C)C(=O)N[C@@H](Cc1ccccc1)C(N)=O)C(C)C)C(C)C)C(C)C [GVIDAAAKVVNVLKNLF]
MIC (Pasteurella multocida): ≥ 56.5 µM | MIC (Bacillus cereus): ≥ 56.5 µM | MIC (Streptococcus uberis): 28.2 µM (≈ 50 µg/mL) | MIC (Escherichia coli): > 56.5 µM | MIC (Leuconostoc lactis): 6.78 µM (≈ 12 µg/mL) | MIC (Listeria innocua): ≥ 56.5 µM | MIC (Micrococcus luteus): ≥ 56.5 µM | MIC (Staphylococcus aureus): > 56.5 µM | MIC [6]: ≥ 56.5 µM

SMILES: CC[C@H](C)[C@H](NC(=O)[C@@H](NC(=O)[C@H](CO)NC(=O)[C@H](C)NC(=O)[C@@H](NC(=O)[C@H](CCCCN)NC(=O)[C@H](CCCCN)NC(=O)[C@@H](NC(=O)[C@@H](NC(=O)[C@H](CC(=O)O)NC(=O)[C@H](Cc1ccccc1)NC(=O)[C@H](CC(C)C)NC(=O)CN)C(C)C)[C@@H](C)CC)C(C)C)C(C)C)C(=O)N[C@@H](CCCCN)C(=O)N[C@@H](CCCCN)C(=O)N[C@@H](CC(C)C)C(N)=O [GLFDVIKKVASVIKKL]
MIC (Pasteurella multocida): ≥ 56.9 µM | MIC (Bacillus cereus): 14.2 µM (≈ 25 µg/mL) | MIC (Streptococcus uberis): 28.4 µM (≈ 50 µg/mL) | MIC (Escherichia coli): > 56.9 µM | MIC (Leuconostoc lactis): 1.71 µM (≈ 3 µg/mL) | MIC (Listeria innocua): 28.4 µM (≈ 50 µg/mL) | MIC (Micrococcus luteus): 28.4 µM (≈ 50 µg/mL) | MIC (Staphylococcus aureus): 56.9 µM (≈ 99.9 µg/mL) | MIC [6]: 6.83 µM (≈ 12 µg/mL)

SMILES: NC(=O)[C@H](Cc1ccccc1)NC(=O)[C@H](CCCN=C(N)N)NC(=O)[C@H](Cc1ccccc1)NC(=O)[C@H](CCCN=C(N)N)NC(=O)[C@H](CS)NC(=O)[C@H](Cc1ccccc1)NC(=O)[C@H](CCCN=C(N)N)NC(=O)[C@H](CCCN=C(N)N)NC(=O)[C@H](CCCN=C(N)N)NC(=O)[C@H](CS)NC(=O)[C@H](CCCN=C(N)N)NC(=O)[C@H](Cc1ccccc1)NC(=O)[C@H](CCCN=C(N)N)NC(=O)[C@@H](N)Cc1ccccc1 [FRFRCRRRFCRFRF]
MIC [7]: 1 µM (≈ 2.05 µg/mL) | MIC [8]: 2 µM (≈ 4.11 µg/mL) | MIC [9]: 1 µM (≈ 2.05 µg/mL) | MIC [10]: 2 µM (≈ 4.11 µg/mL) | MIC [11]: 2 µM (≈ 4.11 µg/mL) | MIC [12]: 4 µM (≈ 8.21 µg/mL) | MIC [13]: 4 µM (≈ 8.21 µg/mL) | MIC [14]: 2 µM (≈ 4.11 µg/mL)

SMILES: CC[C@H](C)[C@H](NC(=O)[C@@H](N)Cc1c[nH]c2ccccc12)C(=O)N[C@@H](CCCN=C(N)N)C(=O)N[C@@H](Cc1c[nH]c2ccccc12)C(=O)N[C@@H](CC(C)C)C(N)=O [WIRWL]
MIC [1]: ≥ 100 µM

— DBAASP
